Results reported in patent publication US8859819B2, “Sulphurated derivatives of resorcinol, preparation of same and cosmetic uses thereof” (Pierre Fabre Dermo-Cosmetique, priority 2009, dated 2014).

Tests used:
[1] = Antioxidant capacity by chemiluminescence (Photochem Analytik Jena); settings: for μg of sample for 1 μg of Trolox: Trolox equivalent, lower = stronger antioxidant
Description: This test is used to determine the antioxidant capacity of the molecules. It is a method that generates free radicals by a photochemical signal. The intensity of the oxidation is 1000 times greater than that obtained under normal conditions.
The detection is carried out by chemiluminescence. It enables the evaluation of hydrosoluble and liposoluble anti-oxidant molecules or extracts.
The results are expressed respectively in equivalent quantity of vitamin C or Trolox (6-hydroxy-2,5,7,8-tetramethylchroman-2-carboxylic acid). The sensitivity is of the order of a nanomole.
The antioxidant activity studied in this test represents the capacity to trap specifically superoxide anions by chemiluminescence.
The quantified results are expressed in Trolox equivalent (standard), i.e. in “μg of product for 1 μg of Trolox”. This signifies that a quantity×of sample is needed to obtain an activity equivalent to the activity detected for 1 μg of standard. It is an anti-oxidant power relative to a reference, which makes it possible to disregard the concentration tested.
The superoxide radical: 02^0− is generated by a photochemical reaction: L+hv (UV)+O2→L*O2→L^0++O2^0−
A part of the superoxide anions is quenched by the anti-oxidants. The remaining free radicals are quantified by chemiluminescence. L^0++O2^0−→N2+AP*^2−→AP^2−+hv (luminescence)

mushroom tyrosinase = molecular target: T1, mushroom tyrosinase (Agaricus bisporus, UniProt C7FF04); test: Tyrosinase inhibition test (in vitro acellular depigmenting activity); format: biochemical; settings: for Tyrosinase depigmenting activity result: class symbol, assay from 250 to 150 μM, overall tyrosinase activity (MPMOg), L-tyrosine substrate; for IC50: monophenol monooxygenase (MPMO) function, reference molecules for the test, read-out: IC 50 (MPMO)
T1 construct: purchased Sigma T-3824
Excerpt: A) Determination of the Depigmenting Activity in an in vitro Acellular Test: Tyrosinase Inhibition Test)
This test is used to evaluate the depigmenting activity of the molecules tested. Tyrosinase is a limiting enzyme in melanogenesis.
It belongs to the family of oxydoreductases. It has in particular the function: monophenol monooxygenase (MPMO) and polyphenol oxidase (PPO).
It is synthesised at the level of the melanocytes. It is activated during its migration towards melanosome […]. It transforms tyrosine into DOPA then dopaquinone, which leads in fine to a polymerisation, i.e. a production of pigments (see diagram below).
The substrate: L-tyrosine, is transformed into L-DOPA by the monophenol mono oxygenase function which is transformed by the polyphenol oxidase function from tyrosinase into dopaquinone. The latter is going to self-oxidise into dopachrome which is measured by spectrophotometry at 490 nm.
More precisely, it is the overall tyrosinase activity (MPMOg) which is measured since it is the dopachrome in fine that is assayed. Thus the products tested on MPMOg (=measurement of the activity on PPO and MPMO) can cumulate the inhibition of the 2 functions, • inhibiting uniquely the MPMO function stricto sensus (transformation of tyrosine into DOPA) as a complement to the PPO test, • could inhibit PPO uniquely. General Experimental Conditions:

B16-F10 cells = test: Melanin assay test in B16-F10 cells; format: cell-based, murine; settings: Mus musculus, read-out: B16 activity results -% at X μM
Description: B) Melanin Assay Test in B16-F10 Cells:
This involves a test of measuring the synthesis of melanin by colorimetric assay on a murine melanoma cell line: the B16-F10 line. This test makes it possible to evaluate the depigmenting power of active ingredients.
The B16-F10 cells are cultured in 96-well plates in DMEM medium supplemented with FCS (foetal calf serum), and incubated for 24 hours at 37° C., 5% CO2. The cells are then stimulated with 0.1 μM α-MSH (to stimulate the synthesis of melanin, the stimulation observed is around 150%) and treated for 72 hours with the active ingredients to be tested. Each concentration of active ingredient is tested at least in triplicate. The total melanin followed by the intracellular melanin dissolved in the lysis buffer are then assayed by absorbance reading at 405 nm. The total proteins are assayed in the lysate and the results are expressed in mg melanin/mg proteins. The percentage of activity is calculated as follows: […]
A negative value indicates an inhibition, whereas a positive value indicates an induction of the synthesis of melanin.
• B16-F10 cell line between P10 and P20 (murine melanocytes) (ATCC, CRL-6475)
Reagents: • DMEM without phenol red (GibcoBRL, 31053-028), 200 mM Glutamax-I Supplement (GibcoBRL, 35050-038), D-PBS (GibcoBRL, 14190-094), Foetal calf serum (Invitrogen, 10270-098), Trypsine-EDTA (GibcoBRL, 25300-054), NaOH (Sigma, S8045-500G), DMSO (Sigma, 471267-1L), Nle, Phe—Melanocyte Stimulating Hormone (Sigma, M-8764), Melanin (Sigma, M-0418), BCA-Copper (Sigma, B9643 and C2284), BSA (Sigma, P0914) C) Test for the Study of the Antioxidant Capacity by Chemiluminescence (Photochem Analytik Jena) Principle: […]

[2] = Protection of linoleic acid following a UV stress (Fenton conditions, MDA-TBA assay); set-up: % Protection Linoleic acid under UV/Fenton: concentration or dose not given beside the values; settings: for % Protection Linoleic acid under UV/Fenton: UV + H2O2 + iron II
Excerpt: D) Test of Protection of Linoleic Acid Following a UV Stress. Target: Protection of Linoleic Acid Under Fenton Conditions, UV Irradiation Linoleic acid belongs to the family of polyunsaturated fatty acids (PUFA) (AGPI). Sensitive to oxidation, linoleic acid is a favoured target for oxygenated free radicals (OFR) in biological media. When biological membranes are exposed to an oxidative stress, the components the most affected are the phospholipids constituted of PUFA and cholesterol. Their degradation leads to lipidic peroxidation and generally to destructuring. Lipidic peroxidation is a self-catalysing process which generally involves OFR. Lipidic peroxidation is in part responsible for skin ageing. The method employed to evaluate lipid peroxidation is based on the coupling of thiobarbituric acid (TBA) and secondary degradation products leading to coloured compounds detectable by spectrofluorometry. The essential secondary compound of final degradation is malondialdehyde, MDA. MDA is a carcinogenic and mutagenic aldehyde, it acts on proteins and DNA. The sample to be tested is placed in contact with linoleic acid in a weight/weight ratio. The sample undergoes an MED (Minimal Erythemal Dose) irradiation under Fenton conditions, namely in the presence of H202 and iron II in a solar simulator. Following irradiation, the reaction mixture is taken up in methanol and derivatised at 90° C. with TBA. Chromogene, the MDA-TBA complex, representative of the equimolar production of MDA is assayed by fluorimetry (excitation at 525 nm, emission at 549 nm). The results are expressed in fluorescence units, as a function of a MDA-TBA control range then expressed as concentration of the MDA-TBA complex. Then, the percentage of the starting MDA/linoleic acid (LA) ratio is determined. Then the percentage of protection of linoleic acid is determined. The product assay is expressed as weight/weight ratio, in other words in weight percentage with respect to the total quantity of linoleic acid. The maximal MDA level is determined by the condition UV+H202+iron II (F). The percentage of protection of linoleic acid represents: the % ratio of MDA under maximal stress conditions untreated over the % of MDA under stress conditions treated by the product.

[3] = reference products of the interpretation scale

T1 sequence (C7FF04 1-392 limits assumed): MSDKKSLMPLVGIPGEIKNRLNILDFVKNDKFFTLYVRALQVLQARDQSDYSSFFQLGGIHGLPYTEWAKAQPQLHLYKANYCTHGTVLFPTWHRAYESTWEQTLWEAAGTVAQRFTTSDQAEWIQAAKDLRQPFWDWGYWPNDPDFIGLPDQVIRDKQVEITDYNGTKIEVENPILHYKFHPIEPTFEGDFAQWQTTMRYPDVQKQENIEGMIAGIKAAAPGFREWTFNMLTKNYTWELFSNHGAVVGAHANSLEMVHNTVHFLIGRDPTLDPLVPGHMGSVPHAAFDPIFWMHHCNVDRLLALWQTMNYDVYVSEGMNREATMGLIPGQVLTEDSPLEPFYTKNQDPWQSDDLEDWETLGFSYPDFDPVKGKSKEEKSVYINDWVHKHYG

Row | Structure (SMILES) | μg of sample for 1 μg of Trolox [1] | % Protection Linoleic acid under UV/Fenton [2] [%] | other results
1 | O=C(O)CCCC[C@@H]1CCSS1 (racemic) [Lipoic acid, reference compound] |  |  | Activity (antioxidant, interpretation scale) [1, 3]: None; μg of sample for 1 μg of Trolox (scale for interpreting the results, reference products) [1, 3]: NEGATIVE
2 | OC[C@H]1O[C@@H](Oc2ccc(O)cc2)[C@H](O)[C@@H](O)[C@@H]1O [Arbutin, reference compound] |  |  | inhibition at 88 µM (mushroom tyrosinase; at 88 μM, MPMO function): 57%
3 | Cc1cc(C(C)(C)C)c(O)c(C(C)(C)C)c1 [BHT, reference compound] |  |  | Activity (antioxidant, interpretation scale) [1, 3]: Good (3.01 to 50)
4 | N[C@@H](CS)C(=O)O [Cysteine, reference compound] |  |  | Activity (antioxidant, interpretation scale) [1, 3]: Medium (50.1 to 1000)
5 | CCCCOc1ccc(Sc2ccc(O)cc2O)c(O)c1 [Example 6, 4-(4-butoxy-2-hydroxyphenylthio)benzene-1,3-diol] | 14.9 μg of sample for 1 μg of Trolox |  | Tyrosinase depigmenting activity result (mushroom tyrosinase): + + +; inhibition at 20 µM (B16-F10 cells; B16-F10, 72 h): 30%
6 | CCCCCCCCCCCC(=O)Oc1cc(O)ccc1Sc1ccc(O)cc1O [Example 14, 2-(2,4-dihydroxyphenylthio)-5-hydroxyphenyl dodecanoate] | 4.8 μg of sample for 1 μg of Trolox |  | Tyrosinase depigmenting activity result (mushroom tyrosinase): + + +; inhibition at 48 µM (B16-F10 cells; B16-F10, 48 μM, α-MSH stimulated, 72 hours, negative value = inhibition): 50%
7 | CCCCCCCC(=O)Oc1ccc(Sc2ccc(O)cc2O)c(O)c1 [Example 16, 4-(2,4-dihydroxyphenylthio)-3-hydroxyphenyl octanoate] | 33.2 μg of sample for 1 μg of Trolox | 91 | Tyrosinase depigmenting activity result (mushroom tyrosinase): + + +
8 | COc1ccc(/C=C/C(=O)Oc2cc(O)ccc2Sc2ccc(O)cc2O)cc1 [Example 22, (E)-2-(2,4-dihydroxyphenylthio)-5-hydroxyphenyl 3-(4-metoxyphenyl)acrylate] | 2.5 μg of sample for 1 μg of Trolox | 97 | Tyrosinase depigmenting activity result (mushroom tyrosinase): + + +
9 | COc1ccc(/C=C/C(=O)Oc2cc(O)ccc2Sc2ccc(O)cc2O)cc1OC [Example 23, (E)-2-(2,4-dihydroxyphenylthio)-5-hydroxyphenyl 3-(3,4-dimethoxyphenyl)acrylate] | 2.8 μg of sample for 1 μg of Trolox | 96 | Tyrosinase depigmenting activity result (mushroom tyrosinase): + + +
10 | CCCCCCCCCCCC(=O)Oc1cc(O)ccc1[S+]([O-])c1ccc(O)cc1O (stereo not drawn) [Example 26, 2-(2,4-dihydroxyphenylsulphinyl)-5-hydroxyphenyl dodecanoate] | 69 μg of sample for 1 μg of Trolox | 80 | 
11 | CCCCC/C=C\C/C=C\CCCCCCCC(=O)Oc1cc(O)ccc1[S+]([O-])c1ccc(O)cc1O (stereo not drawn) [Example 27, (9Z,12Z)-2-(2,4-dihydroxyphenylsulphinyl)-5-hydroxyphenyl octadeca-9,12-dienoate] | 40 μg of sample for 1 μg of Trolox | 78 | 
12 | CCCCCCCCCCOc1cc(O)ccc1[S+]([O-])c1ccc(O)cc1O (stereo not drawn) [Example 28, 4-(2-(decyloxy)-4-hydroxyphenylsulphinyl)benzene-1,3-diol] | 28 μg of sample for 1 μg of Trolox | 94 | 
13 | O=S(=O)(c1ccc(O)cc1O)c1ccc(O)cc1O [Example 29, 4,4′-sulphonyldibenzene-1,3-diol] | 301 μg of sample for 1 μg of Trolox | 25 | μg of sample for 1 μg of Trolox ([1]; listed as resorcinol sulphone): 301 μg of sample for 1 μg of Trolo
14 | CCCCCCCCCCOc1cc(O)ccc1S(=O)(=O)c1ccc(O)cc1O [Example 30, 4-(2-(decyloxy)-4-hydroxyphenylsulphonyl)benzene-1,3-diol] | 147 μg of sample for 1 μg of Trolox | 34 | 
15 | Oc1ccc(O)cc1 [Hydroquinone, reference compound] |  |  | IC50 (mushroom tyrosinase): 3 to 4 µM
16 | N[C@@H](CCC(=O)N[C@@H](CS)C(=O)NCC(=O)O)C(=O)O [Reduced glutathion, reference compound] |  |  | % inhibition (PPO) (mushroom tyrosinase; at 25 μM, PPO function): 55%; IC50 (mushroom tyrosinase): 1 to 2 µM
17 | O=c1c(O)c(-c2ccc(O)c(O)c2)oc2cc(O)cc(O)c12 [quercetin, reference compound] |  |  | protection of linoleic acid ([2]; positive control at 0.1% (weight/weight of linoleic acid)): around 50%; protection of linoleic acid ([2]; positive control at 1% (weight/weight of linoleic acid)): almost total protection
